In patent publication US20030119913A1, “Method for increasing serotonin levels in a person by administration of a composition incorporating (-)-hydroxycitric acid, and related compositions thereof” (priority 2001, published 2003):

Tests used:
[1] = tested on: moderately obese human subjects; assay: Double-blind, placebo-controlled human clinical trial (serum serotonin, body weight, food intake); assay type: in vivo
Protocol: The effects of administering compositions within the scope of the present invention were tested. A double-blind, placebo-controlled human clinical trial was conducted using a composition incorporating: the HCA extract described above, or the HCA extract in combination with an oxygen-coordinated niacin-bound chromium (ChromeMate®, supplied by InterHealth), and a standardized Gymnema sylvestre extract (also supplied by InterHealth). Approximately 80 moderately obese human subjects were enrolled in the study. All subjects were placed on a daily diet of 2,000 kcal, weighing 2,250 grams. All food was prepared and delivered to the subjects, and all food intake was strictly supervised by trained dieticians. All subjects also underwent a 30 minute walking exercise program, five times a week, which was supervised by a trained exercise specialist. The subjects were randomly divided into three groups. The first group was given a placebo. The second group was given a daily dose of 4,667 mg of garcinia cambogia extract (providing 2,800 mg HCA per day). The third group was given a daily dose of 4,667 mg of a combination of garcinia cambogia (2,800 mg HCA), 4 mg of niacin-bound chromium (providing 400 mcg of elemental chromium), and 400 mg of Gymnema sylvestre extract (providing 100 mg […]). The subjects received their respective compositions in three equally-divided doses 30 to 60 minutes before breakfast, lunch and dinner for eight weeks. These dosage levels of HCA were determined by extrapolation of successful earlier animal trials, as well as review of optimal micromolar concentrations of HCA in ex vivo brain tissue resulting in maximum serotonin release. The persons were assessed for changes in serum serotonin levels, body weight, and food intake. As discussed above, increases in serum serotonin levels relate to reduced appetite. Food intake was measured by monitoring the amount of food left unconsumed after each meal by the subjects. The amount of food left unconsumed while taking either the placebo or either of the HCA compositions was compared to the amount of food left unconsumed before the subjects began taking the compositions (i.e., the baseline). Changes in each of these factors were measured in the persons and averaged to produce the figures in Table 1.

rat brain cortex slices = assay: Radiolabeled serotonin release from isolated, superfused rat brain cortex slices in vitro; assay type: cell-based
Protocol: Methods previously known for studies of radiolabeled serotonin release were employed. Isolated rat brain cortex slices were incubated in oxygenated Krebs buffer solution containing 800 nM radiolabeled serotonin, the monoamine oxidase inhibitor pargyline (10 μM), and the cyclooxygenase inhibitor flurbiprofen (3 μM) at 37° C. […] Radiolabeled serotonin was purchased from NEN Life Sciences, Boston, Mass. The Krebs solution used had the following composition (millimolar): potassium chloride, 4.8; sodium chloride 118; calcium chloride, 1.3; potassium dihydrogen phosphate, 1.2; sodium bicarbonate, 25; magnesium sulfate, 2.0; and dextrose, 10 (pH 7.4).
After incubation, tissues were rinsed, mounted between nylon mesh-cloth and placed in thermostatically-controlled superfusion chambers. Tissues were superfused at a rate of 0.5 ml/min with oxygenated Krebs solution containing clomipramine (10 μM), a serotonin reuptake inhibitor. Fractions of the superfusate were collected at 6-minute intervals, and 3-ml aliquots of each fraction was combined with 12 ml of aqueous scintillation cocktail marketed under the name Ecolume, by ICN Radiochemicals of California) and analyzed for radioactivity by liquid scintillation spectrometry.
After an initial 2 hours of superfusion to establish a stable baseline of spontaneous tritium efflux, release of radiolabeled serotonin was elicited by consecutive potassium-depolarizing (K+, 50 mM) stimuli applied at 144 minutes (S1) and at 198 minutes (S2) after the onset of superfusion. In some experiments, tissues were exposed to different concentrations of HCA for 12 minutes before the second K+ stimuli at S2. When HCA was tested on its own, the K+ (50 mM; S1) peak was used as the standard (or control) response. In this case, effects induced by HCA on radiolabeled serotonin release were then compared with the standard K+ response. Both K+ and HCA-induced radiolabeled serotonin release were estimated by subtraction of the extrapolated basal tritium efflux from total tritium release in the 20-minute period after the onset of stimulation. Basal (unstimulated) tritium efflux was assumed to decline linearly between pre-stimulation and post-stimulation fractions. Stimulation-evoked radiolabeled serotonin release during S1 and S2 was determined graphically, and the ratio of the two peaks (S1/S2) was calculated and compared with untreated control preparations.
Results obtained were expressed as absolute S1/S2 ratios. Data from different experiments (control and test) were pooled and then subjected to statistical analysis. Except where indicated otherwise, values given are arithmetic means ±SEM. Significance of difference between control and test values was evaluated using analysis of variance (ANOVA) followed by Dunnett's test. […]

[2] = eight weeks, 2,800 mg HCA per day orally in three doses

O=C(O)CC(O)(C(=O)O)C(O)C(=O)O (single isomer, unassigned; (-)) [HCA, (−)-hydroxycitric acid]
Body weight, % decrease [1, 2]: 5.0% | Serum serotonin level, % increase [1, 2]: 48.5% | Serum serotonin level, mg/dl increase [1, 2]: 119.1 mg/dL | Body weight, pounds lost ([1]; eight weeks, 2,800 mg HCA per day orally in three doses, 2,000 kcal diet and exercise): 10.0 pounds | Food left unconsumed, % increase from baseline ([1]; eight weeks, compared with before taking the compositions): 206% | Food left unconsumed, grams ([1]; eight weeks, daily diet weighing 2,250 grams): 249 grams | Effect on second K+ response (K+-depolarization evoked radiolabeled serotonin release, S2) (rat brain cortex slices; HCA 10 μM-1 mM applied 12 minutes before second K+ (50 mM) stimulus): no significant effect | Effect on basal efflux of radiolabeled serotonin (rat brain cortex slices; HCA 10 μM-1 mM, rat brain cortex slices): concentration-related increase | Overflow of radiolabeled serotonin compared with standard K+ (50 mM) response (rat brain cortex slices; HCA 300 μM (maximal concentration)): equivalent to the release induced by the standard concentration of K+ (50 mM) | Concentration giving maximum basal efflux of radiolabeled serotonin (rat brain cortex slices; tested range 10 μM-1 mM): 300 µM
